According to patent US9302999B2, “Substituted triazoles as herbicides” (E. I. DU PONT DE NEMOURS AND COMPANY, priority 2012, dated 2016):

Key:
Assay type in all cases: in vivo
[1] = test system: barnyardgrass (Echinochloa crus-galli); assay: Test A pre-/postemergence: barnyardgrass
How it was run: (§1)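 Rating scale 0–100 (100 = complete control), visual, ~10 days after application in the greenhouse. Applications: preemergence directed soil spray; postemergence at 1–2 leaves.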

[2] = test system: crabgrass, large (large crabgrass, Digitaria sanguinalis); assay: Test A pre-/postemergence: crabgrass, large
How it was run: as §1

[3] = test system: foxtail, giant (giant foxtail, Setaria faberii); assay: Test A pre-/postemergence: foxtail, giant
How it was run: as §1

[4] = test system: morningglory (Ipomoea spp.); assay: Test A pre-/postemergence: morningglory
How it was run: as §1

[5] = test system: pigweed (Amaranthus retroflexus); assay: Test A pre-/postemergence: pigweed
How it was run: as §1

[6] = test system: velvetleaf (Abutilon theophrasti); assay: Test A pre-/postemergence: velvetleaf
How it was run: as §1

[7] = test system: wheat (Triticum aestivum); assay: Test A pre-/postemergence: wheat
How it was run: as §1

[8] = test system: corn (Zea mays); assay: Test A pre-/postemergence: corn
How it was run: as §1

[9] = test system: rice (Oryza sativa); assay: Test B flooded paddy: rice; conditions: Flood, applied to paddy water at 2-leaf stage, visually evaluated after 13 to 15 days
How it was run: (§2)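 Paddy-water application: seedlings at 2-leaf stage, flood depth 3 cm maintained for the test duration. Evaluation after 13–15 days in the greenhouse by eye relative to controls; 0–100 scale.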

[10] = test system: sedge, umbrella (small-flower umbrella sedge Cyperus difformis); assay: Test B flooded paddy: sedge, umbrella; conditions: Flood, applied to paddy water at 2-leaf stage, visually evaluated after 13 to 15 days
How it was run: as §2

[11] = test system: ducksalad (Heteranthera limosa); assay: Test B flooded paddy: ducksalad; conditions: Flood, applied to paddy water at 2-leaf stage, visually evaluated after 13 to 15 days
How it was run: as §2

[12] = test system: barnyardgrass (Echinochloa crus-galli); assay: Test B flooded paddy: barnyardgrass; conditions: Flood, applied to paddy water at 2-leaf stage, visually evaluated after 13 to 15 days
How it was run: as §2

[13] = Postemergence, 125 g ai/ha, 0 to 100 scale, 0 is no effect, 100 is complete control
[14] = Postemergence, 500 g ai/ha, visual rating on 0 to 100 scale (0 no effect, 100 complete control), approximately ten days
[15] = Preemergence, 125 g ai/ha, 0 to 100 scale where 0 is no effect and 100 is complete control
[16] = Preemergence, 500 g ai/ha, 0 to 100 scale (0 no effect, 100 complete control)
[17] = Postemergence, 500 g ai/ha, 0 to 100 scale, 0 is no effect, 100 is complete control
[18] = Preemergence, 125 g ai/ha, 0 to 100 scale (0 no effect, 100 complete control)
[19] = Preemergence, 500 g ai/ha, 0 to 100 scale, 0 is no effect, 100 is complete control

Cc1nn(-c2ccc(F)cc2)nc1Cc1cccc(C(F)(F)F)c1 [Compound 157]
Plant response rating, Barnyardgrass [1, 13]: 20 | Barnyardgrass plant response rating [1, 14]: 70 | Plant response rating, Barnyardgrass [1, 15]: 20 | Plant response rating, Barnyardgrass [1, 16]: 100 | Plant response rating, Crabgrass, Large [2, 13]: 40 | Crabgrass, Large plant response rating [2, 14]: 80 | Plant response rating, Crabgrass, Large [2, 15]: 20 | Plant response rating, Crabgrass, Large [2, 16]: 90 | Plant response rating, Foxtail, Giant [3, 13]: 80 | Foxtail, Giant plant response rating [3, 14]: 90 | Plant response rating, Foxtail, Giant [3, 15]: 90 | Plant response rating, Foxtail, Giant [3, 16]: 100 | Plant response rating, Morningglory [4, 13]: 60 | Morningglory plant response rating [4, 14]: 80 | Plant response rating, Morningglory [4, 15]: 0 | Plant response rating, Morningglory [4, 16]: 0 | Plant response rating, Pigweed [5, 13]: 100 | Pigweed plant response rating [5, 14]: 100 | Plant response rating, Pigweed [5, 15]: 80 | Plant response rating, Pigweed [5, 16]: 100 | Plant response rating, Velvetleaf [6, 13]: 40 | Plant response rating, Velvetleaf [6, 15]: 0 | Plant response rating, Velvetleaf [6, 16]: 0 | Plant response rating, Wheat [7, 13]: 0 | Wheat plant response rating [7, 14]: 20 | Plant response rating, Wheat [7, 15]: 0 | Plant response rating, Wheat [7, 16]: 0 | Plant response rating, Corn [8, 13]: 20 | Corn plant response rating [8, 14]: 40 | Plant response rating, Corn [8, 15]: 0 | Plant response rating, Corn [8, 16]: 0 | Plant response rating, Rice (0 to 100 scale, 0 is no effect, 100 is complete control) ([9]; 250 g ai/ha): 0 | Plant response rating, Sedge, Umbrella (0 to 100 scale, 0 is no effect, 100 is complete control) ([10]; 250 g ai/ha): 40 | Plant response rating, Ducksalad (0 to 100 scale, 0 is no effect, 100 is complete control) ([11]; 250 g ai/ha): 20 | Plant response rating, Barnyardgrass (0 to 100 scale, 0 is no effect, 100 is complete control) ([12]; 250 g ai/ha): 0

CC(=O)Oc1nn(-c2ccc(C(F)(F)F)cc2)nc1Cc1ccnc(C(F)(F)F)c1 [Compound 197]
Plant response rating, Barnyardgrass [1, 13]: 0 | Barnyardgrass plant response rating [1, 17]: 10 | Plant response rating, Barnyardgrass [1, 15]: 0 | Plant response rating, Barnyardgrass [1, 16]: 0 | Plant response rating, Crabgrass, Large [2, 13]: 10 | Crabgrass, Large plant response rating [2, 17]: 20 | Plant response rating, Crabgrass, Large [2, 15]: 0 | Plant response rating, Crabgrass, Large [2, 16]: 0 | Plant response rating, Foxtail, Giant [3, 13]: 10 | Foxtail, Giant plant response rating [3, 17]: 40 | Plant response rating, Foxtail, Giant [3, 15]: 0 | Plant response rating, Foxtail, Giant [3, 16]: 0 | Plant response rating, Morningglory [4, 13]: 30 | Morningglory plant response rating [4, 17]: 40 | Plant response rating, Morningglory [4, 15]: 0 | Plant response rating, Morningglory [4, 16]: 0 | Plant response rating, Pigweed [5, 13]: 30 | Pigweed plant response rating [5, 17]: 70 | Plant response rating, Pigweed [5, 15]: 0 | Plant response rating, Pigweed [5, 16]: 0 | Plant response rating, Velvetleaf [6, 13]: 20 | Velvetleaf plant response rating [6, 17]: 30 | Plant response rating, Velvetleaf [6, 15]: 0 | Plant response rating, Velvetleaf [6, 16]: 0 | Plant response rating, Wheat [7, 13]: 0 | Wheat plant response rating [7, 17]: 0 | Plant response rating, Wheat [7, 15]: 0 | Plant response rating, Wheat [7, 16]: 0 | Plant response rating, Corn [8, 13]: 0 | Corn plant response rating [8, 17]: 20 | Plant response rating, Corn [8, 15]: 0 | Plant response rating, Corn [8, 16]: 0 | Plant response rating, Rice (0 to 100 scale, 0 is no effect, 100 is complete control) ([9]; 250 g ai/ha): 0 | Plant response rating, Sedge, Umbrella (0 to 100 scale, 0 is no effect, 100 is complete control) ([10]; 250 g ai/ha): 0 | Plant response rating, Ducksalad (0 to 100 scale, 0 is no effect, 100 is complete control) ([11]; 250 g ai/ha): 0 | Plant response rating, Barnyardgrass (0 to 100 scale, 0 is no effect, 100 is complete control) ([12]; 250 g ai/ha): 0

Cc1ccc(-n2nc(C)c(C(=O)c3cccc(C(F)(F)F)c3)n2)cc1 [Compound 44]
Barnyardgrass plant response rating [1, 13]: 20 | Barnyardgrass plant response rating [1, 14]: 20 | Plant response rating, Barnyardgrass [1, 18]: 0 | Plant response rating, Barnyardgrass [1, 19]: 30 | Crabgrass, Large plant response rating [2, 13]: 30 | Crabgrass, Large plant response rating [2, 14]: 40 | Plant response rating, Crabgrass, Large [2, 18]: 60 | Plant response rating, Crabgrass, Large [2, 19]: 90 | Foxtail, Giant plant response rating [3, 13]: 20 | Foxtail, Giant plant response rating [3, 14]: 30 | Plant response rating, Foxtail, Giant [3, 18]: 70 | Plant response rating, Foxtail, Giant [3, 19]: 90 | Morningglory plant response rating [4, 13]: 20 | Morningglory plant response rating [4, 14]: 70 | Pigweed plant response rating [5, 13]: 70 | Pigweed plant response rating [5, 14]: 90 | Plant response rating, Pigweed [5, 18]: 20 | Plant response rating, Pigweed [5, 19]: 90 | Velvetleaf plant response rating [6, 13]: 60 | Velvetleaf plant response rating [6, 14]: 70 | Plant response rating, Velvetleaf [6, 18]: 0 | Plant response rating, Velvetleaf [6, 19]: 50 | Wheat plant response rating [7, 13]: 20 | Wheat plant response rating [7, 14]: 30 | Plant response rating, Wheat [7, 18]: 0 | Plant response rating, Wheat [7, 19]: 30 | Corn plant response rating [8, 13]: 30 | Corn plant response rating [8, 14]: 30 | Plant response rating, Corn [8, 18]: 0 | Plant response rating, Corn [8, 19]: 20 | Plant response rating, Rice (0 to 100 scale, 0 is no effect, 100 is complete control) ([9]; 250 g ai/ha): 0 | Plant response rating, Sedge, Umbrella (0 to 100 scale, 0 is no effect, 100 is complete control) ([10]; 250 g ai/ha): 0 | Plant response rating, Ducksalad (0 to 100 scale, 0 is no effect, 100 is complete control) ([11]; 250 g ai/ha): 0 | Plant response rating, Barnyardgrass (0 to 100 scale, 0 is no effect, 100 is complete control) ([12]; 250 g ai/ha): 0

Cc1nn(-c2ccc(Br)cc2)nc1Oc1ccnc(C(F)(F)F)c1 [Compound 53]
Barnyardgrass plant response rating [1, 13]: 90 | Barnyardgrass plant response rating [1, 14]: 90 | Plant response rating, Barnyardgrass [1, 18]: 80 | Plant response rating, Barnyardgrass [1, 19]: 100 | Crabgrass, Large plant response rating [2, 13]: 90 | Crabgrass, Large plant response rating [2, 14]: 90 | Plant response rating, Crabgrass, Large [2, 18]: 100 | Plant response rating, Crabgrass, Large [2, 19]: 100 | Foxtail, Giant plant response rating [3, 13]: 90 | Foxtail, Giant plant response rating [3, 14]: 90 | Plant response rating, Foxtail, Giant [3, 18]: 100 | Plant response rating, Foxtail, Giant [3, 19]: 100 | Plant response rating, Morningglory [4, 18]: 30 | Plant response rating, Morningglory [4, 19]: 40 | Pigweed plant response rating [5, 13]: 100 | Pigweed plant response rating [5, 14]: 100 | Plant response rating, Pigweed [5, 18]: 90 | Plant response rating, Pigweed [5, 19]: 100 | Velvetleaf plant response rating [6, 13]: 80 | Velvetleaf plant response rating [6, 14]: 100 | Plant response rating, Velvetleaf [6, 18]: 10 | Plant response rating, Velvetleaf [6, 19]: 50 | Wheat plant response rating [7, 13]: 20 | Wheat plant response rating [7, 14]: 30 | Plant response rating, Wheat [7, 18]: 10 | Plant response rating, Wheat [7, 19]: 30 | Corn plant response rating [8, 13]: 30 | Corn plant response rating [8, 14]: 40 | Plant response rating, Corn [8, 18]: 0 | Plant response rating, Corn [8, 19]: 20 | Plant response rating, Rice (0 to 100 scale, 0 is no effect, 100 is complete control) ([9]; 250 g ai/ha): 50 | Plant response rating, Sedge, Umbrella (0 to 100 scale, 0 is no effect, 100 is complete control) ([10]; 250 g ai/ha): 85 | Plant response rating, Ducksalad (0 to 100 scale, 0 is no effect, 100 is complete control) ([11]; 250 g ai/ha): 85 | Plant response rating, Barnyardgrass (0 to 100 scale, 0 is no effect, 100 is complete control) ([12]; 250 g ai/ha): 60

FC(F)(F)c1cccc(-n2nc(Oc3ccnc(C(F)(F)F)c3)c(C3CC3)n2)c1 [Compound 200]
Plant response rating, Barnyardgrass [1, 13]: 0 | Barnyardgrass plant response rating [1, 17]: 10 | Plant response rating, Barnyardgrass [1, 15]: 0 | Plant response rating, Barnyardgrass [1, 16]: 0 | Plant response rating, Crabgrass, Large [2, 13]: 10 | Crabgrass, Large plant response rating [2, 17]: 40 | Plant response rating, Crabgrass, Large [2, 15]: 80 | Plant response rating, Crabgrass, Large [2, 16]: 100 | Plant response rating, Foxtail, Giant [3, 13]: 10 | Foxtail, Giant plant response rating [3, 17]: 20 | Plant response rating, Foxtail, Giant [3, 15]: 70 | Plant response rating, Foxtail, Giant [3, 16]: 100 | Plant response rating, Morningglory [4, 13]: 10 | Morningglory plant response rating [4, 17]: 30 | Plant response rating, Morningglory [4, 15]: 0 | Plant response rating, Morningglory [4, 16]: 10 | Plant response rating, Pigweed [5, 13]: 50 | Pigweed plant response rating [5, 17]: 100 | Plant response rating, Pigweed [5, 15]: 50 | Plant response rating, Pigweed [5, 16]: 100 | Plant response rating, Velvetleaf [6, 13]: 10 | Velvetleaf plant response rating [6, 17]: 40 | Plant response rating, Velvetleaf [6, 15]: 0 | Plant response rating, Velvetleaf [6, 16]: 0 | Plant response rating, Wheat [7, 13]: 0 | Wheat plant response rating [7, 17]: 0 | Plant response rating, Wheat [7, 15]: 0 | Plant response rating, Wheat [7, 16]: 0 | Plant response rating, Corn [8, 13]: 10 | Corn plant response rating [8, 17]: 20 | Plant response rating, Corn [8, 15]: 0 | Plant response rating, Corn [8, 16]: 0 | Plant response rating, Rice (0 to 100 scale, 0 is no effect, 100 is complete control) ([9]; 125 g ai/ha): 0 | Plant response rating, Sedge, Umbrella (0 to 100 scale, 0 is no effect, 100 is complete control) ([10]; 125 g ai/ha): 0 | Plant response rating, Ducksalad (0 to 100 scale, 0 is no effect, 100 is complete control) ([11]; 125 g ai/ha): 0 | Plant response rating, Barnyardgrass (0 to 100 scale, 0 is no effect, 100 is complete control) ([12]; 125 g ai/ha): 0
